Data as given in patent US20090247616A1, “USE OF BENZO-FUSED HETEROCYLE SULFAMIDE DERIVATIVES FOR THE TREATMENT OF ANXIETY” (priority 2008, published 2009).

Experiments:
[1] = system: Male Rj:NMRI mice; assay: Elevated Plus Maze, Mouse (EPM); assay type: in vivo; details: 16 mg/kg p.o. (positive control)
Excerpt: Rodents avoid open spaces (in the case of the assay apparatus, the open arms of an elevated plus-maze). Compounds which have anti-anxiety activity increase exploratory activity of the rodents in the open arms of the elevated plus-maze. The EPM assay was run according to the procedure as described by Handley and Mithani (Naunyn. Schmied. Arch. Pharmacol., 327, 1-5, 1984).
Male Rj:NMRI mice, weighing 20-30 g (max. range per experiment=5 g) at the beginning of the experiments, were obtained from Elevage Janvier, 53940 Le Genest-Saint-Isle, France and used in the assay. The animals were delivered to the laboratory at least 5 days before the experiments during which time they were acclimatized to laboratory conditions. The mice were housed in groups of 10 in Macrolon cages (25×19×13 cm) on wood litter (Litalabo—SPPS, 95100 Argenteuil, France) with free access to food (Code 113—SAFE, 89290 Augy, France) and water until tested (or as indicated otherwise). The animal house was maintained under artificial lighting (12 hours) between 7:00 and 19:00 in a controlled ambient temperature of 21±3° C., and relative humidity between 30-80%.
The elevated plus-maze consisted of 4 arms of equal length and width (14×5 cm) arranged in the form of a plus sign (+). Two opposite arms were enclosed by 12 cm high walls (closed arms). The 2 other arms had no walls (open arms). The maze was raised 56 cm above the floor. A mouse was placed in the centre of the plus-maze and left to explore the maze for 5 minutes. The number of entries into the open and closed arms and the time spent in the open arms was recorded. Ten (10) mice were used for each study group. The test was performed blind.
(§1) Compound #8 was evaluated at 30 mg/kg, 60 mg/kg and 120 mg/kg doses, administered p.o. 60 minutes before the test, and compared with a vehicle control group. Compound #8 was homogenized and dispersed using a mortar and a pestle in 0.2% hydroxypropylmethylcellulose (HPMC) in distilled water, which served as the vehicle. As a positive control, Clobazam (16 mg/kg p.o.), was administered under the same experimental conditions. Clobazam as URBANYL® tablets (16 mg/kg p.o.) were dispersed in 0.2% hydroxypropylmethylcellulose (HPMC) in distilled water for administration. Each experiment therefore included 5 study groups of 10 mice each.
(§2) Data were analyzed by comparing groups treated with compound #8 with groups treated with vehicle control using unpaired Student's t tests.

[2] = system: mouse; assay: Four Plate Test, Mouse; assay type: in vivo; details: 32 mg/kg p.o. (positive control)
Excerpt: The Four Plate assay was run according to the procedure as described by Aron et al (Neuropharmacology, 10, 459-469, 1971). In this assay, the rodent experiences an electric shock upon crossing from one plate to another. Anxiolytics (such as benzodiazepines) increase the number of punished crossings.
Animals were placed individually in a white plastic enclosure containing a floor consisting of 4 metal plates connected to an electric shock generator (Apelex: Type 011346). The mouse was left to explore freely for 15 seconds. Then, every time the mouse crossed from one plate to another, it received a weak electric shock (2.5 mA, 1.5 s). The number of punished crossings were counted during a 1 minute test. Ten (10) mice were used for each study group. The test was performed blind.
as §1, with “(32” for “(16”, “Clobazam as URBANYL® tablets (16 mg/kg p.o.) were dispersed in 0.2% hydroxypropylmethylcellulose (HPMC) in distilled water for administration. Each experiment therefore included 5 study groups of 10 mice each.” left out
as §2

[3] = same experimental conditions, 10 mice

| SMILES | melting point [°C] | Closed Arms Number of Entries, Mean ± S.E.M. [1, 3] | Open Arms Number of Entries, Mean ± S.E.M. [1, 3] | Open Arms Time Spent (sec), Mean ± S.E.M. [1, 3] [s] | Closed Arms Number of Entries, % change ([1]; change from vehicle control) | Open Arms Number of Entries, % change ([1]; change from vehicle control) | Open Arms Time Spent, % change ([1]; change from vehicle control) | Number of Punished Crossings, Mean ± S.E.M. [2, 3] | Number of Punished Crossings, % Change ([2]; change from vehicle control) |
| --- | --- | --- | --- | --- | --- | --- | --- | --- | --- |
| NS(=O)(=O)NCC1CCc2ccccc2O1 (stereo not drawn) | 100 to 101 |  |  |  |  |  |  |  |  |
| CN1C(=O)CC(=O)N(c2ccccc2)c2cc(Cl)ccc21 [CLOBAZAM, Clobazam] |  | 11.9 ± 1.5 (*) | 11.7 ± 1.1 (***) | 120.1 ± 13.1 | +59% | +350% | +567% | 9.9 ± 1.2 (***) | +154% |
